Results from ChEMBL document CHEMBL5154928, “Structure-Aided Design, Synthesis, and Biological Evaluation of Potent and Selective Non-Nucleoside Inhibitors Targeting Protein Arginine Methyltransferase 5” (J Med Chem, 2022).
Activity calls are given as the source filed them. No cut-off for these calls is given here.

What was measured:
[1] = biological target: T1, Protein arginine N-methyltransferase 5 (Homo sapiens, UniProt O14744); experiment: Displacement of [3H]-SAM from PRMT5 (unknown origin) using peptide substrate preincubated for 15 mins followed by substrate addition for 60 mins by radioactive biochemical assay
A-375 [2] = experiment: Antiproliferation activity against human A-375 cells assessed as cell growth inhibition incubated for 5 days by CCK-8 assay; details: A-375, 120 h
[3] = biological target: T1, Protein arginine N-methyltransferase 5; experiment: Displacement of [3H]-SAM from PRMT5 (unknown origin) at 10 uM using peptide substrate preincubated for 15 mins followed by substrate addition for 60 mins by radioactive biochemical assay relative to control
[4] = Metabolic stability in human liver microsomes assessed as half life incubated for 10 mins measured up to 60 mins in presence of NADPH by LC-MS/MS analysis; type: ADME, Microsome
[5] = biological target: T1, Protein arginine N-methyltransferase 5; experiment: Inhibition of PRMT5 in human A-375 cells assessed as decrease in […] levels measured after 48 hrs by Western blot analysis; type: cell-based; details: dose 0.5-8 µM, DDE = dose-dependent effect
MOLM-13 = experiment: Antiproliferation activity against human MOLM-13 cells assessed as cell growth inhibition incubated for 5 days by CCK-8 assay; type: functional, cell-based; details: dose <= 10.0 µM, time 5.0 day, DDE = dose-dependent effect
[6] = biological target: T1, Protein arginine N-methyltransferase 5; experiment: Competitive inhibition of PRMT5 (unknown origin) in presence of MTA
MDA-MB-453 = experiment: Antiproliferation activity against human MDA-MB-453 cells assessed as cell growth inhibition incubated for 5 days by CCK-8 assay; type: functional, cell-based; details: dose <= 10.0 µM, time 5.0 day, DDE = dose-dependent effect
Mus musculus [7] = experiment: In vivo inhibition of PRMT5 in human A-375 cells xenografted in BALB/c mouse assessed as reduction in H3R8me2s levels in tumor tissue at 75 mg/kg, po qd for 19 days measured after 3 weeks by Western blot analysis; type: functional, organism-based; details: time 19.0 day
Mus musculus [8] = experiment: In vivo inhibition of PRMT5 in human A-375 cells xenografted in BALB/c mouse assessed as reduction in sDMA levels in tumor tissue at 75 mg/kg, po qd for 19 days measured after 3 weeks by Western blot analysis; type: functional, organism-based; details: time 19.0 day
MV4-11 = experiment: Antiproliferation activity against human MV4-11 cells assessed as cell growth inhibition incubated for 5 days by CCK-8 assay; type: functional, cell-based; details: dose <= 10.0 µM, time 5.0 day, DDE = dose-dependent effect
A-375 [9] = experiment: Induction of apoptosis in human A-375 cells incubated for 48 hrs by Annexin-V FITC/PI staining based flow cytometry analysis; type: functional, cell-based; details: dose 0.5-4 µM, DDE = dose-dependent effect
[10] = biological target: T1, Protein arginine N-methyltransferase 5; experiment: Competitive inhibition of PRMT5 (unknown origin) at 0.001 to 100000 nM using histone H4 (1 to 21 residues) as substrate incubated for 120 mins in presence of different concentrations of SAM by AlphaLISA assay; details: dose 0.001-100000 nM
Mus musculus [11] = experiment: In vivo inhibition of PRMT5 in human A-375 cells xenografted in BALB/c mouse assessed as reduction in H4R3me2s levels in tumor tissue at 75 mg/kg, po qd for 19 days measured after 3 weeks by Western blot analysis; type: functional, organism-based; details: time 19.0 day
MDA-MB-231 = experiment: Antiproliferation activity against human MDA-MB-231 cells assessed as cell growth inhibition incubated for 5 days by CCK-8 assay; type: functional, cell-based; details: dose <= 10.0 µM, time 5.0 day, DDE = dose-dependent effect
SNU-449 = experiment: Antiproliferation activity against human SNU-449 cells assessed as cell growth inhibition incubated for 5 days by CCK-8 assay; type: functional, cell-based; details: dose <= 10.0 µM, time 5.0 day, DDE = dose-dependent effect
CHL-1 = experiment: Antiproliferation activity against human CHL-1 cells assessed as cell growth inhibition incubated for 5 days by CCK-8 assay; type: functional, cell-based; details: dose <= 10.0 µM, time 5.0 day, DDE = dose-dependent effect
SNU-423 = experiment: Antiproliferation activity against human SNU-423 cells assessed as cell growth inhibition incubated for 5 days by CCK-8 assay; type: functional, cell-based; details: dose <= 10.0 µM, time 5.0 day, DDE = dose-dependent effect
[12] = Half life in Sprague-Dawley rat at 10 mg/kg, po measured for 0.25 to 24 hrs by LC-MS/MS analysis; type: ADME, organism-based; details: in vivo, time 0.25-24 hrs
[13] = Oral bioavailability in mouse at 10 mg/kg, measured for 0.25 to 24 hrs by LC-MS/MS analysis; type: ADME, organism-based; details: in vivo, time 0.25-24 hrs
[14] = Volume of distribution at steady state in mouse at 3 mg/kg, iv measured for 0.25 to 24 hrs by LC-MS/MS analysis; type: ADME, organism-based; details: in vivo, time 0.25-24 hrs, read-out: Vdss
[15] = Half life in mouse at 3 mg/kg, iv measured for 0.25 to 24 hrs by LC-MS/MS analysis; type: ADME, organism-based; details: in vivo, time 0.25-24 hrs
[16] = Cmax in mouse at 10 mg/kg, po measured for 0.25 to 24 hrs by LC-MS/MS analysis; type: ADME, organism-based; parameters: time lower 0.25 hrs, dose 10 mg/kg, time upper 24 hrs, route po; details: in vivo
[17] = Cmax in Sprague-Dawley rat at 10 mg/kg, po measured for 0.25 to 24 hrs by LC-MS/MS analysis; type: ADME, organism-based; parameters: time lower 0.25 hrs, dose 10 mg/kg, time upper 24 hrs, route po; details: in vivo
[18] = AUC (0 to infinity) in Sprague-Dawley rat at 10 mg/kg, po measured for 0.25 to 24 hrs by LC-MS/MS analysis; type: ADME, organism-based; parameters: dose 10 mg/kg, time upper 24 hrs, time lower 0.25 hrs, route po; details: in vivo
[19] = AUC (0 to infinity) in mouse at 3 mg/kg, iv measured for 0.25 to 24 hrs by LC-MS/MS analysis; type: ADME, organism-based; parameters: time upper 24 hrs, time lower 0.25 hrs, dose 3 mg/kg, route iv; details: in vivo
[20] = Clearance in mouse at 3 mg/kg, iv measured for 0.25 to 24 hrs by LC-MS/MS analysis; type: ADME, organism-based; details: in vivo, time 0.25-24 hrs
[21] = Oral bioavailability in Sprague-Dawley rat at 10 mg/kg, measured for 0.25 to 24 hrs by LC-MS/MS analysis; type: ADME, organism-based; details: in vivo, time 0.25-24 hrs

T1 sequence (O14744 whole entry): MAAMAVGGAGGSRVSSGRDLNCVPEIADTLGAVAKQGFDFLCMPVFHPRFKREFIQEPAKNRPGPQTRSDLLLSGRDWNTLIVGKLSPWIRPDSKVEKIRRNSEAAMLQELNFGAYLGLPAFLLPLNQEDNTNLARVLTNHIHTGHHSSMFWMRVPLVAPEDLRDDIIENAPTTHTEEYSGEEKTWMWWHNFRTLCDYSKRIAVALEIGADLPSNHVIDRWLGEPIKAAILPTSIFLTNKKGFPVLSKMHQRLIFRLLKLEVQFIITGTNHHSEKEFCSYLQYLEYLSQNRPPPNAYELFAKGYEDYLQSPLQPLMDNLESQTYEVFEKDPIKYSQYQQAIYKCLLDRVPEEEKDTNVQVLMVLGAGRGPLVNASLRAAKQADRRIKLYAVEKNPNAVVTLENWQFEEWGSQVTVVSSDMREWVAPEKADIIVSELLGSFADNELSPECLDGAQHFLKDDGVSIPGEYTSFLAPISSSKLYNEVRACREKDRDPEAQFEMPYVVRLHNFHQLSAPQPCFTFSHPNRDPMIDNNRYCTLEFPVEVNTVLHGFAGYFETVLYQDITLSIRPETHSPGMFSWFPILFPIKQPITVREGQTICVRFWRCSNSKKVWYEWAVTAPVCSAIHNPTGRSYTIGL

SMILES	IC50 [1]	IC50 (A-375 [2])	other results
CN1CCN(c2ncnc3[nH]c(-c4ccc(OCc5ccccc5)cc4)cc23)CC1	27.5 nM		
C[C@@H](Oc1ccc(-c2nc3c(C4=CCNCC4)ncnc3[nH]2)cc1)c1ccccc1	114 nM	7580 nM	
Nc1ncnc2[nH]c(-c3ccc(OCc4ccccc4)cc3)cc12	83.9 nM		inhibition [3]: 81.9%
c1ccc(COc2ccc(-c3cc4c(N5CCOCC5)ncnc4[nH]3)cc2)cc1	55 nM		
Nc1ncnc2c1ccn2Cc1cccc(Oc2ccccc2)c1			inhibition [3]: 15.5%
CCN1CCN(c2ncnc3[nH]c(-c4ccc(OCc5ccccc5)cc4)cc23)CC1	71.3 nM		
c1ccc(COc2ccc(-c3cc4c(N5CCN(C6COC6)CC5)ncnc4[nH]3)cc2)cc1	40 nM		
C[C@H](Oc1ccc(-c2nc3c(C4=CCNCC4)ncnc3[nH]2)cc1)c1ccccc1	34.5 nM	5960 nM	half-life [4]: 70.1 min
c1ccc(COc2ccc(-c3nc4c(N5CCOCC5)ncnc4[nH]3)cc2)cc1	44.7 nM		
c1ccc(COc2ccc(-c3cc4c(-c5cn[nH]c5)ncnc4[nH]3)cc2)cc1	113 nM		
C[C@H](Oc1ccc(-c2cc3c(C4=CCNCC4)ncnc3[nH]2)c(F)c1)c1ccccc1	22.1 nM	1750 nM	half-life [4]: 42.3 min
c1ccc(COc2ccc(-c3cc4c(NC5CCNCC5)ncnc4[nH]3)cc2)cc1	22.3 nM		
O=C(NC[C@H](O)CN1CCc2ccccc2C1)c1cc(NC2COC2)ncn1			inhibition [5]: Dde
Cc1cc(-c2cc3c(C4=CCNCC4)ncnc3[nH]2)ccc1O[C@@H](C)c1ccccc1	80.9 nM	8260 nM	half-life [4]: 56.8 min
c1ccc(COc2ccc(-c3cc4c(N5CCC6(CC5)COC6)ncnc4[nH]3)cc2)cc1	51 nM		
C[C@@H](Oc1ccc(-c2cc3c(C4=CCNCC4)ncnc3[nH]2)c(F)c1)c1ccccc1	103 nM	6490 nM	
Nc1ncnc2c1ccn2Cc1ccccc1			inhibition [3]: 18.1%
c1ccc(COc2ccc(-c3nc4c(N5CCNCC5)ncnc4[nH]3)cc2)cc1	11.5 nM		
CC(Oc1ccc(-c2nc3c(C4=CCNCC4)ncnc3[nH]2)c(F)c1)c1ccccc1 (racemic)	234 nM	7500 nM	
C[C@H](Oc1ccc(-c2cc3c(C4=CCNCC4)ncnc3[nH]2)cc1F)c1ccccc1	23.9 nM	3500 nM	half-life [4]: 56.2 min
C[C@@H](Oc1ccc(-c2nc3c(C4=CCNCC4)ncnc3[nH]2)c(F)c1)c1ccccc1	157 nM	8690 nM	
C[C@@H]1CN(c2ncnc3[nH]c(-c4ccc(OCc5ccccc5)cc4)cc23)C[C@H](C)N1	21.7 nM		
Cn1cc(-c2ncnc3[nH]c(-c4ccc(OCc5ccccc5)cc4)cc23)cn1	119 nM		

SMILES	IC50 [1]	IC50 (A-375 [2])	other results
CC1(O)CCN(c2ncnc3[nH]c(-c4ccc(OCc5ccccc5)cc4)cc23)CC1	88.8 nM		
CN(C)CCN(C)c1ncnc2[nH]c(-c3ccc(OCc4ccccc4)cc3)cc12	17.3 nM		
c1ccc(COc2ccc(-c3cc4c(N5CCNCC5)ncnc4[nH]3)cc2)cc1	11.4 nM		
C[C@H](Oc1ccc(-c2nc3c(C4=CCNCC4)ncnc3[nH]2)c(F)c1)c1ccccc1	79.6 nM	5420 nM	half-life [4]: 41.3 min
Nc1ncnc2c1ccn2-c1ccc(OCc2ccccc2)cc1			inhibition [3]: 10.5%
CC(Oc1ccc(-c2cc3c(C4=CCNCC4)ncnc3[nH]2)c(F)c1)c1ccccc1 (racemic)	30.4 nM	4620 nM	
Nc1ncnc2c1ccn2Cc1ccc(Oc2ccccc2)cc1			inhibition [3]: 14.1%
C[C@@H](Oc1ccc(-c2cc3c(C4=CCNCC4)ncnc3[nH]2)cc1)c1ccccc1	47.7 nM	2570 nM	half-life [4]: 18.3 min
COc1cc(O[C@@H](C)c2ccccc2)ccc1-c1cc2c(C3=CCNCC3)ncnc2[nH]1	193 nM	7920 nM	
O=C1CN(c2ncnc3[nH]c(-c4ccc(OCc5ccccc5)cc4)cc23)CCN1	50.8 nM		
C1=C(c2ncnc3[nH]c(-c4ccc(OCc5ccccc5)cc4)nc23)CCNC1	14.2 nM		half-life [4]: 2.09 min
CC(Oc1ccc(-c2nc3c(C4=CCNCC4)ncnc3[nH]2)cc1)c1ccccc1 (racemic)	37.1 nM	7170 nM	
C[C@H](Oc1ccc(-c2cc3c(C4=CCNCC4)ncnc3[nH]2)cc1)c1ccccc1			Activity (MOLM-13): Dde; Activity [6]: Active; Activity (MDA-MB-453): Dde; Activity (Mus musculus [7]): Active; inhibition [5]: Dde; Activity (Mus musculus [8]): Active; Activity (MV4-11): Dde; Activity (A-375 [9]): Dde; Activity [10]: Active; Activity (Mus musculus [11]): Active; Activity (MDA-MB-231): Dde; Activity (SNU-449): Dde; Activity (CHL-1): Dde; Activity (SNU-423): Dde
CC(Oc1ccc(-c2cc3c(C4=CCNCC4)ncnc3[nH]2)cc1)c1ccccc1 (racemic)	43.5 nM	2480 nM	half-life [4]: 26 min
Nc1ncnc2c1ncn2Cc1ccccc1			inhibition [3]: 15.6%
Nc1ncnc2c1ncn2-c1ccc(OCc2ccccc2)cc1			inhibition [3]: 20.2%
c1ccc(COc2ccc(-c3cc4c(N5CCCNCC5)ncnc4[nH]3)cc2)cc1	10.4 nM		
Nc1ncnc2[nH]c(-c3ccc(OCc4ccccc4)cc3)nc12	59.4 nM		inhibition [3]: 84.4%
CN1CCCN(c2ncnc3[nH]c(-c4ccc(OCc5ccccc5)cc4)cc23)CC1	16.7 nM		
C[C@H](Oc1ccc(-c2cc3c(C4=CCNCC4)ncnc3[nH]2)cc1)c1ccccc1.Cl			half-life [12]: 177 min; bioavailability [13]: 46.2%; Vd [14]: 47.7 L/kg; half-life [15]: 283 min; Cmax [16]: 128 ng/mL; Cmax [17]: 27.7 ng/mL; AUC [18]: 205 h/ng/mL; AUC [19]: 464 h/ng/mL; clearance [20]: 153 mL/min/kg; bioavailability [21]: 23.7%
C1=C(c2ncnc3[nH]c(-c4ccc(OCc5ccccc5)cc4)cc23)CCNC1	8 nM		half-life [4]: 2.99 min
Cc1cc(O[C@@H](C)c2ccccc2)ccc1-c1cc2c(C3=CCNCC3)ncnc2[nH]1	32.8 nM	3390 nM	half-life [4]: 47.3 min
